{"source": "paper PMC8177795", "about": "(Cancer Science, 2021)", "key": {"[1]": {"assay": "Plasma pharmacokinetics of acalabrutinib and ACP‐5862", "type": "in vivo, Japanese patients", "details": "for M/P ratio (metabolite to parent), AUC / M/P ratio (metabolite to parent), AUC0–12 / M/P ratio (metabolite to parent), AUC0–t / M/P ratio (metabolite to parent), Cmax: part 1"}, "BTK": {"test_system": "BTK", "details": "no reference given; cited from earlier work"}, "[2]": {"details": "multiple dose 100 mg BID, day 8, part 1"}, "[3]": {"details": "multiple dose 100 mg BID, day 8, part 1, fasting"}, "[4]": {"details": "single dose 100 mg acalabrutinib, part 1, fasting"}}, "note": "Where “and” joins values, the source holds several entries; their conditions need not be identical. Equal entries are not always repeated.", "data": [{"compound": "CC#CC(=O)NCCCC(=O)c1nc(-c2ccc(C(=O)Nc3ccccn3)cc2)c2c(N)nccn12", "note": "[ACP‐5862]", "values": [{"measurement": "RAC (extent of accumulation on multiple dosing), Amean ± SD", "setting": "[1]; [2]", "result": "2.72 and 2.722 ± 2.826"}, {"measurement": "TC (time dependency of pharmacokinetics), Amean ± SD", "setting": "[1]; [2]", "result": "1.444 ± 0.8136"}, {"measurement": "AUC0–12, Gmean (CV)", "setting": "[1]; [3]", "result": "1987 (8%) ng∙h/mL"}, {"measurement": "AUC0–t, Gmean (CV)", "setting": "[1]; [3]", "result": "1985 (8%) ng∙h/mL"}, {"measurement": "AUC (zero to infinity), Gmean (CV)", "setting": "[1]; [3]", "result": "2099 (7%) ng∙h/mL"}, {"measurement": "Cmax, Gmean (CV)", "setting": "[1]; [3]", "result": "629.7 (27%) ng/mL"}, {"measurement": "t1/2, Amean ± SD", "setting": "[1]; [3]", "result": "3.216 ± 0.3938", "unit": "h"}, {"measurement": "tmax, median (min, max)", "setting": "[1]; [3]", "result": "0.940 (0.750, 1.080) h"}, {"measurement": "M/P ratio (metabolite to parent), AUC", "setting": "[1]; multiple dose", "result": 1.73}, {"measurement": "M/P ratio (metabolite to parent), AUC0–12", "setting": "[1]; multiple dose", "result": 1.64}, {"measurement": "M/P ratio (metabolite to parent), AUC0–t", "setting": "[1]; multiple dose", "result": 1.65}, {"measurement": "M/P ratio (metabolite to parent), Cmax", "setting": "[1]; multiple dose", "result": 0.56}, {"measurement": "AUC0–12, Gmean (CV)", "setting": "[1]; [4]", "result": "1092 (124%) ng∙h/mL"}, {"measurement": "AUC0–t, Gmean (CV)", "setting": "[1]; [4]", "result": "1306 (94%) ng∙h/mL"}, {"measurement": "AUC (zero to infinity), Gmean (CV)", "setting": "[1]; [4]", "result": "1557 (60%) ng∙h/mL"}, {"measurement": "Cmax, Gmean (CV)", "setting": "[1]; [4]", "result": "316.5 (260%) ng/mL"}, {"measurement": "t1/2, Amean ± SD", "setting": "[1]; [4]", "result": "10.18 ± 7.986", "unit": "h"}, {"measurement": "tmax, median (min, max)", "setting": "[1]; [4]", "result": "0.965 (0.900, 4.000) h"}, {"measurement": "M/P ratio (metabolite to parent), AUC", "setting": "[1]; single dose", "result": 1.40}, {"measurement": "M/P ratio (metabolite to parent), AUC0–12", "setting": "[1]; single dose", "result": 1.23}, {"measurement": "M/P ratio (metabolite to parent), AUC0–t", "setting": "[1]; single dose", "result": 1.36}, {"measurement": "M/P ratio (metabolite to parent), Cmax", "setting": "[1]; single dose", "result": 0.53}, {"measurement": "Potency for BTK inactivation relative to the parent agent acalabrutinib", "setting": "BTK", "result": "approximately 50%"}]}]}
